According to patent US20120184542A1, “PYRIDO PYRIMIDINES” (priority 2011, published 2012):

Key:
Human DYRK1B = target: T1, Human DYRK1B (Homo sapiens, UniProt Q9Y463); assay: DYRK1B Kinase TR-FRET (IMAP-Tb) Assay; type: biochemical; settings: TR-FRET (IMAP-Tb); ATP 70 μM; 37° C. 60 minutes; read-out: Enzyme IC50 (μM) DYRK1B
T1 construct: purchased Invitrogen PR8350B (former PV4649)

Human DYRK1A = target: T2, Human DYRK1A (Homo sapiens, UniProt Q13627); assay: DYRK1A Kinase TR-FRET (IMAP-Tb) Assay; type: biochemical; settings: TR-FRET (IMAP-Tb); ATP 70 μM; 37° C. 60 minutes; read-out: Enzyme IC50 (μM) DYRK1A
T2 construct: purchased Invitrogen PV3997
Procedure, shortened: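 Recombinant human DYRK1A phosphorylated fluorescent substrate peptide (1.0 μM) with ATP in 10 mM HEPES pH 7.0, 50 mM NaCl, 5 mM MgCl2, 1 mM DTT, 1 mM NaVO4, 0.02% BSA for 60 min at 37 °C. Phosphopeptide detected by IMAP terbium TR-FRET; IC50 reported.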

[1] = tested on: SW620 human colon cancer cells; assay: SW620 Cell Viability Assay; type: cell-based; settings: Homo sapiens, SW-620, 96 h, CellTiter-Glo; 4 days incubation; read-out: Cellular EC50 (μM) SW620
Description: Some cells (S—) were allowed to attach for 24 hrs, serum starved for 48 hrs, and then followed with drug treatments Test Compound Solutions were Prepared in Regular Corresponding Media Supplemented with Serum 2. […] Viability Assay: This assay was performed as follows: • Transfer 50 μL of test compound solution per well from the test compound plate onto the cell plate prepared in Step #1. • Mix the plate with treated cells by pipetting up and down three times with 200 μL multi-channel pipette. • Incubate the cells in 5% CO2 incubator @ 37° C. for 4 days. • Run the CellTiter-Glo™ Luminescent Cell Viability Assay.

T1 sequence (Q9Y463 whole entry): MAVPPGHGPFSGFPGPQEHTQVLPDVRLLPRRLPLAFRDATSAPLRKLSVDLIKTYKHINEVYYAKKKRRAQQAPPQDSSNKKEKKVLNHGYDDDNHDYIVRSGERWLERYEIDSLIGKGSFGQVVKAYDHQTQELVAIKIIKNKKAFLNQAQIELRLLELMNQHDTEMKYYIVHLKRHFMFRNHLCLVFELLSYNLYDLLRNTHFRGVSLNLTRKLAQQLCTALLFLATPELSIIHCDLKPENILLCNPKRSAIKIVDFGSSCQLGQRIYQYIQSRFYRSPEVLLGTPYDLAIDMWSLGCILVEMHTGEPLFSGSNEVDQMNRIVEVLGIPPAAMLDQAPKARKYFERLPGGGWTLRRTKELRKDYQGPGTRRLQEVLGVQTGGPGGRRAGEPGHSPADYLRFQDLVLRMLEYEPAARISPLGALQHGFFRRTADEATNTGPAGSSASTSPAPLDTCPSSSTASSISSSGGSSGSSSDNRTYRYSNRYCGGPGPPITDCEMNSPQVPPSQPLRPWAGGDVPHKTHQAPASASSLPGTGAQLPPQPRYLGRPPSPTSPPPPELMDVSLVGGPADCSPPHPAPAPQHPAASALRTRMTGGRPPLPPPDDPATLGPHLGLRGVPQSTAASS

SMILES	IC50 (Human DYRK1B)	IC50 (Human DYRK1A)	EC50 [1]
O=C(NCc1cccc(Cl)c1)c1ccc(Cl)c(NC(=O)c2cc3cnc(OCCN4CCOCC4)nc3[nH]c2=O)c1 [Example 81, 2-(2-Morpholin-4-yl-ethoxy)-7-oxo-7,8-dihydro-pyrido[2,3-d]pyrimidine-6-carboxylic acid [2-chloro-5-(3-chloro-benzylcarbamoyl)-phenyl]-amide]	0.128 µM	0.0313 µM	0.651 µM
COc1ncc2cc(C(=O)Nc3cc(C(=O)NC(CN)c4cccc(Cl)c4)ccc3Cl)c(=O)[nH]c2n1 (stereo not drawn) [Example 85, 2-Methoxy-7-oxo-7,8-dihydro-pyrido[2,3-d]pyrimidine-6-carboxylic acid {5-[2-amino-1-(3-chloro-phenyl)-ethylcarbamoyl]-2-chloro-phenyl}-amide]	0.029 µM	0.03 µM	0.524 µM
O=C(NCc1cccc(Cl)c1)c1ccc(Cl)c(NC(=O)c2cc3cnc(N4CCOCC4)nc3[nH]c2=O)c1 [Example 86, 2-Morpholin-4-yl-7-oxo-7,8-dihydro-pyrido[2,3-d]pyrimidine-6-carboxylic acid [2-chloro-5-(3-chloro-benzylcarbamoyl)-phenyl]-amide]	3.25 µM	0.07 µM	> 10 µM
CN1CCN(CCOc2ncc3cc(C(=O)Nc4cc(C(=O)NCc5cccc(Cl)c5)ccc4Cl)c(=O)[nH]c3n2)CC1 [Example 87, 2-[2-(4-Methyl-piperazin-1-yl)-ethoxy]-7-oxo-7,8-dihydro-pyrido[2,3-d]pyrimidine-6-carboxylic acid [2-chloro-5-(3-chloro-benzylcarbamoyl)-phenyl]amide]	0.0859 µM	0.061 µM	0.186 µM
O=C(NCc1cccc(Cl)c1)c1ccc(Cl)c(NC(=O)c2cc3cnc(NCCN4CCCC4)nc3[nH]c2=O)c1 [Example 89, 7-Oxo-2-(2-pyrrolidin-1-yl-ethylamino)-7,8-dihydro-pyrido[2,3-d]pyrimidine-6-carboxylic acid [2-chloro-5-(3-chloro-benzylcarbamoyl)-phenyl]amide]	0.023 µM	0.0189 µM	0.192 µM
O=C(NCc1cccc(Cl)c1)c1ccc(Cl)c(NC(=O)c2cc3cnc(NCCCN4CCOCC4)nc3[nH]c2=O)c1 [Example 90, 2-(3-Morpholin-4-yl-propylamino)-7-oxo-7,8-dihydro-pyrido[2,3-d]pyrimidine-6-carboxylic acid [2-chloro-5-(3-chloro-benzylcarbamoyl)-phenyl]amide]	0.0523 µM	0.0113 µM	0.312 µM
O=C(NCc1cccc(Cl)c1)c1ccc(Cl)c(NC(=O)c2cc3cnc(N[C@H]4CC[C@H](O)CC4)nc3[nH]c2=O)c1 [Example 94, 2-(4-Hydroxy-cyclohexylamino)-7-oxo-7,8-dihydro-pyrido[2,3-d]pyrimidine-6-carboxylic acid [2-chloro-5-(3-chloro-benzylcarbamoyl)-phenyl]amide]	0.0622 µM	0.0245 µM	1.13 µM
O=C(NCc1cccc(Cl)c1)c1ccc(Cl)c(NC(=O)c2cc3cnc(N[C@H]4CC[C@@H](O)CC4)nc3[nH]c2=O)c1 [Example 95, 2-(4-Hydroxy-cyclohexylamino)-7-oxo-7,8-dihydro-pyrido[2,3-d]pyrimidine-6-carboxylic acid [2-chloro-5-(3-chloro-benzylcarbamoyl)-phenyl]amide]	0.012 µM	0.0257 µM	0.406 µM
NC1CCN(c2ncc3cc(C(=O)Nc4cc(C(=O)NCc5cccc(Cl)c5)ccc4Cl)c(=O)[nH]c3n2)CC1 [Example 97, 2-(4-Amino-piperidin-1-yl)-7-oxo-7,8-dihydro-pyrido[2,3-d]pyrimidine-6-carboxylic acid [2-chloro-5-(3-chloro-benzylcarbamoyl)-phenyl]-amide]	0.0819 µM	0.0448 µM	0.0662 µM
